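48-hour exposure; five concentrations; linearly interpolated endpoints. GI50: concentration for 50% inhibition of growth.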 Active and inactive are the calls of the source. Rule as the data show it: active = GI50 up to about 1.1 µM and inactive = higher.

What all share (test): growth of human tumour cells (NCI), 48 h
Assay [1] deals with OVCAR-3.
Assay [2] relates to LOX IMVI.
Assay [3] relates to HL-60.
Assay [4] deals with HCT-116.
In assay [5] the test system is UACC-62.
In assay [6] the test system is RPMI-8226.
Assay [7] relates to CAKI-1.
Assay [8] concerns SNB-19.
Assay [9] deals with EKVX.
Assay [10] concerns K562.
For assay [11], the system named is SNB-75.
Assay [12] concerns A549.
The subject of assay [13] is HOP-62.
For assay [14], the system named is IGROV-1.
Assay [15] relates to CCRF-CEM.
Assay [16] concerns HOP-92.
Assay [17] deals with SK-MEL-28.
The test system of assay [18] is NCI-H460.
The subject of assay [19] is UO-31.
The subject of assay [20] is M14.

As to `CCCC[S+]([O-])CC(CO)NC(=O)/C=C/c1c(C)[nH]c(=O)[nH]c1=O` (stereo not given), the GI50 in [1] is 5 µM (inactive); in assay [2], 7.62 µM (inactive); in assay [3], 7.23 µM (inactive); in assay [4] it was 10 µM (inactive); in assay [5], 7.52 µM (inactive); in assay [6], 9.02 µM (inactive). The GI50 in [7] was 18.9 µM (inactive); in [8], 4.89 µM (inactive); in assay [9], 8.47 µM (inactive); in assay [10] it was 8.97 µM (inactive); in [11], 6.85 µM (inactive); in assay [12], 10.8 µM (inactive). For the same compound, the GI50 was 8.93 µM (inactive) in [13]; 7.29 µM (inactive) in assay [14]; 6.65 µM (inactive) in assay [15]; 11.8 µM (inactive) in [16]; 6.5 µM (inactive) in [17]; 3.12 µM (inactive) in assay [18]. For the same compound, the GI50 in [19] was 13.3 µM (inactive).
With `O=Nn1c2ccccc2c2cc([N+](=O)[O-])ccc21`, the GI50 in assay [1] was 17.9 µM (inactive); in assay [2] it was 14.7 µM (inactive); in assay [3], > 100 µM (inactive); in assay [4], 13.9 µM (inactive); in assay [5], 16 µM (inactive); in assay [6], 13.3 µM (inactive). Besides, the GI50 in assay [7] was 16.4 µM (inactive); in assay [8] it was 20.7 µM (inactive); in [9], 11.2 µM (inactive); in assay [20], 20 µM (inactive); in [10], 11.1 µM (inactive); in assay [11], 7.23 µM (inactive). Besides, the GI50 was 19.9 µM (inactive) in assay [12]; 12.3 µM (inactive) in [13]; 15.7 µM (inactive) in assay [14]; 14.3 µM (inactive) in [15]; 14.3 µM (inactive) in assay [16]; 18.5 µM (inactive) in assay [17]. Also, the values for the GI50 in assay [18] and in assay [19] were 18 µM (inactive) and 22.4 µM (inactive), respectively.
On to `S=c1sc2c(s1)SC(c1ccccc1)CS2` (stereo not given), for which the GI50 is > 66.2 µM (inactive) in assay [1]; > 86.3 µM (inactive) in assay [2]; > 51.3 µM (inactive) in [3]; > 100 µM (inactive) in [4]; > 100 µM (inactive) in [5]; > 100 µM (inactive) in assay [6]. For the same compound, the GI50 in assay [7] was 1 µM (active); in [8] it was > 100 µM (inactive); in assay [9], > 100 µM (inactive); in [10] it was > 100 µM (inactive); in [11], > 45 µM (inactive); in assay [12], > 100 µM (inactive). For the same compound, the GI50 is > 90.8 µM (inactive) in [13]; > 100 µM (inactive) in assay [14]; > 100 µM (inactive) in [15]; > 64.4 µM (inactive) in assay [16]; > 100 µM (inactive) in [17]; > 100 µM (inactive) in assay [18]. Besides, the GI50 in assay [19] is > 100 µM (inactive).
For `CC1(C)N=C(c2ccccc2)SC12S[C@@H]1CCCC[C@H]1S2`, the GI50 was > 100 µM (inactive) in assay [1]; > 100 µM (inactive) in assay [2]; > 100 µM (inactive) in assay [3]; > 100 µM (inactive) in [4]; > 100 µM (inactive) in [5]; 32.2 µM (inactive) in assay [6]. Further, the GI50 is > 100 µM (inactive) in assay [7]; 13.2 µM (inactive) in [8]; > 100 µM (inactive) in assay [9]; > 100 µM (inactive) in assay [20]; > 100 µM (inactive) in [10]; > 100 µM (inactive) in assay [11]. Further, the GI50 in assay [12], in assay [13], in [14], in assay [15], in assay [16] and in assay [17] was > 100 µM (inactive) in each case. The GI50 in [18] and in [19] was > 100 µM (inactive) in each case.
With `COc1ccc([C@H]2c3cc4c(cc3OC(O)(CO)[C@H]2C(=O)O)OCO4)c(OC)c1.COc1ccc([C@H]2c3cc4c(cc3OC3(O)COC(=O)[C@@H]23)OCO4)c(OC)c1` (stereo not given in full), the GI50 in assay [1] was > 100 µM (inactive); in assay [2], 95.5 µM (inactive); in assay [3], 45.6 µM (inactive); in [4] it was > 100 µM (inactive); in [5], 41.5 µM (inactive); in [6] it was 41.9 µM (inactive). Moreover, the GI50 in assay [8] is > 100 µM (inactive); in [9], > 100 µM (inactive); in assay [20] it was > 100 µM (inactive); in assay [10], 71.1 µM (inactive); in assay [11], 43.5 µM (inactive); in assay [12] it was > 100 µM (inactive). The GI50 is > 100 µM (inactive) in assay [13]; > 100 µM (inactive) in assay [14]; 37.3 µM (inactive) in assay [15]; > 100 µM (inactive) in assay [16]; 35.8 µM (inactive) in [17]; > 100 µM (inactive) in assay [18]. The GI50 in assay [19] is > 100 µM (inactive).
For the compound `O=C(Nc1cccc([N+](=O)[O-])c1)C(=O)C(C(=O)c1ccccc1F)C1OC(=O)C2C=CC=CC21` (stereo not given), the GI50 in assay [2] is 21.1 µM (inactive); in assay [3] it was 20 µM (inactive); in assay [4], 19.4 µM (inactive); in assay [5], 28 µM (inactive); in assay [6], 23.8 µM (inactive); in assay [7], 59.2 µM (inactive). The GI50 in assay [8] is 29.9 µM (inactive); in [9] it was 41 µM (inactive); in assay [20], 38 µM (inactive); in assay [10] it was 31.8 µM (inactive); in assay [11] it was 28.7 µM (inactive); in assay [12] it was 37.5 µM (inactive). Also, the GI50 was 50.9 µM (inactive) in assay [13]; 53.8 µM (inactive) in [14]; 27.3 µM (inactive) in assay [15]; > 100 µM (inactive) in [16]; 30.3 µM (inactive) in assay [17]; 40.9 µM (inactive) in assay [18]. For the same compound, the GI50 in assay [19] is 44.1 µM (inactive).
Consider `N/C(=N\O)N/N=C\c1ccc(O)c(O)c1O`, for which the GI50 in [1] is 22.7 µM (inactive); in [2], 16.3 µM (inactive); in [3], 17.2 µM (inactive); in [4], 27.5 µM (inactive); in assay [5], 17.3 µM (inactive); in [6], 41.5 µM (inactive). The GI50 in [7] is 29.4 µM (inactive); in assay [8], > 51.9 µM (inactive); in assay [9], > 78.5 µM (inactive); in assay [10] it was 17.8 µM (inactive); in assay [11], 17.3 µM (inactive); in assay [12], > 58.7 µM (inactive). Also, the GI50 in assay [13] was > 41.1 µM (inactive); in assay [14] it was 57 µM (inactive); in [15] it was 17.3 µM (inactive); in [16] it was > 55.3 µM (inactive); in assay [17], > 100 µM (inactive); in assay [18] it was 17.1 µM (inactive). In [19], the GI50 was > 100 µM (inactive).
Consider `CSc1nc(NC2OCC(OC(C)=O)C(OC(C)=O)C2OC(C)=O)c(/N=C(\C)C(C)=O)c(=O)[nH]1` (stereo not given), for which the GI50 in assay [2], in assay [3], in [4], in assay [6], in assay [7] and in assay [8] was > 100 µM (inactive) in each case. In addition, the GI50 in assay [9], in assay [20], in assay [10], in assay [11], in assay [12] and in assay [14] was > 100 µM (inactive) each time. Also, the GI50 in assay [15], in assay [16], in [17] and in [18] was > 100 µM (inactive) in each case.
Consider `CCOC(=O)C(O)(NC(=O)c1ccccc1F)C(F)(F)F` (stereo not given), for which the GI50 in [1], in [2], in assay [3], in assay [4], in assay [5] and in [6] was > 100 µM (inactive) throughout. The GI50 in [7], in assay [8], in assay [9], in assay [20], in assay [10] and in [11] was > 100 µM (inactive) throughout. In addition, the GI50 in assay [12] was > 100 µM (inactive); in assay [13], > 100 µM (inactive); in assay [14], 84.5 µM (inactive); in [15], > 100 µM (inactive); in [16], > 100 µM (inactive); in assay [17] it was > 100 µM (inactive). For the same compound, the GI50 in [19] is > 100 µM (inactive).

The record behind these values is ChEMBL document CHEMBL1201862, “PubChem BioAssay data set” (2004).
